Biological target: STK33 (Homo sapiens, UniProt Q9BYT3)
Assay: NanoBRET target engagement intracellular kinase assay
Format: cell-based
Design: host or cells: HEK293 (HEK293T cultured)
Settings: HEK293 cells, 2 hours incubation
Protocol: NanoBRET Target Engagement intracellular kinase assay. HEK293T cells were cultured in […]
The cell line underwent authentication by short tandem repeat (STR) profiling at Cytogenetics and Cell Authentication Core (CCAC) at MD Anderson Cancer Center. NanoBRET Target Engagement intracellular kinase assay, K-10 assay (Cat. # N2641), K-9 assay (Cat. # N2631), transfection reagent FuGENE HD (Cat. # E2311), transfection carrier DNA (Cat. # E4881), NanoLuc-STK33 fusion vector (Cat. # NV2111), NanoLuc-RET fusion vector (Cat. # NV1951), NanoLuc-CLK1 fusion vector (Cat. # NV1131), NanoLuc-CLK2 fusion vector (Cat. # NV1141), and NanoLuc-CLK4 fusion vector (Cat. # NV1151) were purchased from Promega. The measurement of test compound engagement with cellular target protein was performed in a 384-well format according to manufacturer’s instructions. HEK293 cells were transiently transfected with NanoLuc (STK33, RET, CLK1, CLK2, and CLK4) fusion vectors. After 36 hours of transfection, cells were treated with a fixed concentration of tracer (recommended by Promega) followed by compounds (inhibitors) for 2 hours of incubation. To determine the test compound […]
0.4 nM at a fixed tracer concentration. Staurosporine was measured in parallel as a positive control.
Freshly prepared NanoBRET Nano-Glo substrate plus extracellular NanoLuc inhibitor was then added to initiate the subsequent bioluminescence resonance energy transfer (BRET) measurements using a CLARIOstar Plus BMG LABTECH plate reader. Data analysis was done by measuring the ratio of acceptor emission to donor emission (BRET ratio) and normalized by subtracting no-tracer-control-background. IC50 values were obtained by nonlinear regression using a four-parameter equation in GraphPad Prism 7 (San Diego, CA).

Sequence of STK33 (Q9BYT3 whole entry): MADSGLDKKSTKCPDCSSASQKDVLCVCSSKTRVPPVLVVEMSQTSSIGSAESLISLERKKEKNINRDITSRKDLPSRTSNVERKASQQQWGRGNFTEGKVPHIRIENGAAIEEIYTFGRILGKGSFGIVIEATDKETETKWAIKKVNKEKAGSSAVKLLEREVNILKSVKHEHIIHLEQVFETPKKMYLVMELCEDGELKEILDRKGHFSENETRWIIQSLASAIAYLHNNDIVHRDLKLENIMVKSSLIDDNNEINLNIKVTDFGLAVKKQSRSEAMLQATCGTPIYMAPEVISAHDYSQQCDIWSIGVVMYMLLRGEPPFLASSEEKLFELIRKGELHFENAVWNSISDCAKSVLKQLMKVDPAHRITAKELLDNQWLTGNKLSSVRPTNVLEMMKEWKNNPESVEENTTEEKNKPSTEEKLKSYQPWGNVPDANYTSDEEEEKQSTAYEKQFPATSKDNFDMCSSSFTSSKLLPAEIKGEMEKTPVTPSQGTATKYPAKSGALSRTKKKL

IC50 | SMILES
1290 nM | O=C(c1ccc2[nH]nc(C#Cc3ccccc3-c3ccccc3)c2c1)N1CCC2(CCNCC2)C1 [Compound S5]
52 nM | O=C(c1ccc2[nH]nc(C#Cc3ccccc3-c3ccccc3)c2c1)N1CCC2(CCCCN2)C1 (centres unmarked) [Compound S3]
